Assay results taken from patent US8029814B2, “Male produced pheromone in Tetropium fuscum (F.) and Tetropium cinnamopterum (kirby) (coleoptera: cerambycidae)” (Her Majesty the Queen in Right of Canada as represented by …, priority 2007, dated 2011).
“Also recorded” adds a separate entry of the source.

How the values were obtained:
T. fuscum [1] = test: Field trapping of fuscumol enantiomers, APT Intercept traps, Bialowieza, Poland, 2007; assay type: in vivo, Tetropium fuscum
Source text: (§1) FIG. 4. Mean catch of a. Tetropium fuscum and b. T. castaneum in APT INTERCEPT TRAPS™ (insect traps) baited with synthetic fuscumol (pure S—, pure R—, or racemic) alone and combined with host volatile lures (SB=spruce blend, a blend of monoterpenes in an ultra high release rate (UHR) lure; E=ethanol in an UHR lure) in Bialowieza, Poland in 2007.
Trapping experiments were run in 2007 in Halifax, NS, and Bialowieża, Poland to test the response of Tetropium species to fuscumol, a sex pheromone emitted by male Tetropium fuscum (F.) and male T. cinnamopterum. […] Male T. fuscum emit primarily S-fuscumol so we hypothesized that a synthetic lure of pure S-fuscumol would be more attractive than pure R-fuscumol, and possibly more attractive than racemic fuscumol, especially if R-fuscumol was the major pheromone component of a sympatric sibling species such as T. castaneum. The ultimate objective was to determine if we could improve the efficacy of the lure for use in applications for survey and control of T. fuscum. Conducting the experiment in Poland allowed us to test the response of a different population of T. fuscum from that in Halifax and also to determine the attraction of the pheromone lures to another potentially invasive species, T. castaneum.
There were eight different lure treatments: S-fuscumol; R-fuscumol; racemic fuscumol; S-fuscumol+UHR (ultra high release rate) spruce blend lure+UHR ethanol lure; R-fuscumol+UHR spruce blend lure+UHR ethanol lure; racemic fuscumol+UHR spruce blend lure+UHR ethanol lure; UHR spruce blend lure+UHR ethanol lure; and unbaited controls.
On McNabs Island near Halifax, NS, COLOSSUS TRAPS™ (insect traps) were used with 15 replicates per treatment and in Bialowieża, APT (Advanced Pheromone Technologies) INTERCEPT TRAPS™ (insect traps) were used with 9 replicates per treatment. The treatments were laid out in randomized complete block designs with 30 m spacing between traps. Traps were out from 15 May to 27 Jun. 2007 on McNabs Island and from 30 Apr. to 25 Jun. 2007 in Bialowieża. […]

T. castaneum [2] = test: Trapping with low, medium or high release of racemic fuscumol or fuscumate plus SB and E lures (FIG. 13); assay type: in vivo, Tetropium castaneum; details: added to spruce volatile (SB) and ethanol (E) lures
Protocol: FIG. 13 Mean catch of T. castaneum in traps baited with low (1 mg/d), medium (4 mg/d) or high (32 mg/d) of racemic fuscumol plus spruce volatile (SB) and ethanol (E) lures.

T. fuscum [3] = test: Trapping with low, medium or high release of racemic fuscumol or fuscumate plus SB and E lures (FIG. 14); assay type: in vivo, Tetropium fuscum; details: added to spruce volatile (SB) and ethanol (E) lures
Protocol: FIG. 14 Mean catch of T. fuscum in traps baited with low (1 mg/d), medium (4 mg/d) or high (32 mg/d) of racemic fuscumol plus spruce volatile (SB) and ethanol (E) lures.

[4] = test system: T. cinnamopterum antennae; test: Electroantennogram (EAG) antennal stimulation; parameters: species or system Tetropium cinnamopterum; details: EAG puffs ca. 30 ng source concentration
Protocol: (§2) Extracts (cal male equivalent in hexane) and synthetics (30 ng fuscumol) were tested for antennal stimulation of T. fuscum and T. cinnamopterum males and females using an electroantennogram (EAG) system and EAG/GC-EAD signal recording (IDAC-232) and analysis software v.2.6 (SYNTECH, The Netherlands). Antennae from males and females were excised close to the head and used intact with SPECTRA-60™ gel (electrode gel) (Parker, USA) for electrical contact.
as §2, with “(ca.1” for “(cal”, “Spectra©-60” for “SPECTRA-60™”, “gel” for “gel (electrode gel)”

T. fuscum antennae = test: Electroantennogram (EAG) antennal stimulation; parameters: species or system Tetropium fuscum; details: EAG puffs ca. 30 ng source concentration
Protocol: as §2
as §2, with “(ca.1” for “(cal”, “Spectra©-60” for “SPECTRA-60™”, “gel” for “gel (electrode gel)”

T. fuscum [5] = test: Field trapping, Colossus traps, McNabs Island, Halifax, 2006; assay type: in vivo, Tetropium fuscum; details: female and male T. fuscum; compared with host volatiles alone or unbaited traps; 8-week trapping
Source text: (§3) FIG. 3. Mean number (+SE) of male and female T. fuscum (a) and T. cinnamopterum (b) captured in COLOSSUS TRAPS™ (insect traps) baited with synthetic pheromone candidate (P), host volatile lures (HV), P plus host volatiles (P+HV), or un-baited traps, over the entire 8-week trapping period. […] Data for T. fuscum males and females and T. cinnamopterum females were transformed by log (y+1); data for the catch of T. cinnamopterum males were transformed by square root.
(§4) The synthetic pheromone, alone and in combination with host volatile attractants, was tested in a field experiment on McNabs Island, Halifax, Nova Scotia, from 5 Jul. to 29 Aug. 2006, using COLOSSUS TRAPS™ (insect traps) (PheroTech Inc. Delta, British Columbia) (Sweeney et al. 2006)^4. Unbaited traps and traps baited with host volatiles alone served as controls, for a total of four treatments. Treatments were replicated 15 times in a randomized complete block design with 30 m between traps and blocks. Each trap was suspended from a rope tied between two conifers separated by at least 2 m, with the collecting bucket 10-20 cm above the ground. […] Pheromone was dispensed at ca. initially 800 μg/d dropping to 50 μg/d over a 4 week period (determined by weight loss at 23° C.) from a polymerase chain reaction (PCR) sample tube (Axygen Scientific Inc., CA) (0.2-mL thick) with a 1 mm diam. hole drilled in the cap. […]

T. cinnamopterum = test: as above; assay type: in vivo, Tetropium cinnamopterum
Source text: as §3, §4

T. castaneum [6] = test: Field trapping of fuscumol enantiomers, APT Intercept traps, Bialowieza, Poland, 2007; assay type: in vivo, Tetropium castaneum; details: in the presence of host volatiles and ethanol
Source text: as §1
Trapping experiments were run in 2007 in Halifax, NS, and Bialowieża, Poland to test the response of Tetropium species to fuscumol, a sex pheromone emitted by male Tetropium fuscum (F.) and male T. cinnamopterum. […] Male T. fuscum emit primarily S-fuscumol so we hypothesized that a synthetic lure of pure S-fuscumol would be more attractive than pure R-fuscumol, and possibly more attractive than racemic fuscumol, especially if R-fuscumol was the major pheromone component of a sympatric sibling species such as T. castaneum. The ultimate objective was to determine if we could improve the efficacy of the lure for use in applications for survey and control of T. fuscum. Conducting the experiment in Poland allowed us to test the response of a different population of T. fuscum from that in Halifax and also to determine the attraction of the pheromone lures to another potentially invasive species, T. castaneum. […]

CC(C)=CCC/C(C)=C/CC[C@@H](C)O [R-fuscumol]
attraction of T. fuscum to S-fuscumol in the presence of R-fuscumol (T. fuscum [1]; racemic versus S-fuscumol): not reduced

CC(=O)OC/C=C(\C)CCC=C(C)C [fuscumate, geranyl acetate]
catch compared to SB+E (T. castaneum [2]): did not boost catch; also recorded: no effect on attraction
catch compared to SB+E (T. fuscum [3]): did not boost catch; also recorded: no effect on attraction

CC(C)=CCC/C(C)=C/CCC(C)O (racemic) [racemic fuscumol, (E)-6,10-dimethyl-5,9-undecadien-2-ol]
antennal response in females relative to males [4]: 2-3 times
antennal response (EAG) ([4]; females, n=5): 1.7 ± 0.2 mV
antennal response in females relative to males (T. fuscum antennae): 2-3 times
antennal response (EAG) (T. fuscum antennae; females, n=5): 6.05 ± 0.3 mV
catch compared to SB+E (T. castaneum [2]): significantly increased catch
trap catch compared among lure treatments (T. fuscum [5]): did not differ from that in unbaited traps
trap catch compared with unbaited traps (T. cinnamopterum; T. cinnamopterum, fuscumol alone): did not differ from that in unbaited traps
response of male T. cinnamopterum (T. cinnamopterum; males): Lack of response
attraction of T. castaneum (T. castaneum [6]): attracted

CC(C)=CCC/C(C)=C/CC[C@H](C)O [S-fuscumol, (2S, 5E)-6,10-dimethyl-5,9-undecadien-2-ol]
attractiveness compared with R-fuscumol or an unbaited trap (T. fuscum [1]; without host volatile lures): significantly more attractive
mean catch compared with racemic fuscumol (T. fuscum [1]; without host volatile lures): did not differ significantly
attraction of T. castaneum (T. castaneum [6]): attracted
